Structures are written as SMILES.

One assay concerns the target T1, DDX3X (Homo sapiens, UniProt O00571).
T1 construct: endogenous in cells; host or cells: GBM0308 glioblastoma stem cells (lysate)
The assay is described as follows: PISA assay in GBM0308 cell lysates, DDX3X. The class given is binding. The conditions noted are these: GBM0308 lysate, compound 10 μM, AMP-PNP and (AG)8 RNA added. The text has this: Derivatization-free target identification using a modified proteome integral solubility alteration (PISA) assay. The inventors next pursued proteome-wide target identification to better understand the target profiles of CSC-selective rocaglates. To enable cross-compound comparisons of target engagement, the inventors opted to use the Proteome Integral Solubility Alteration (PISA) assay,^29 a derivative of the mass spectrometry-based Cellular Thermal Shift Assay (MS-CETSA). In MS-CETSA,^30,31 target engagement is inferred through proteome-wide analysis of compound-induced changes to protein thermal stability; proteins with a shift in their half-maximal thermal denaturation temperature upon compound treatment are flagged as potential targets. The PISA assay obviates the need for MS-CETSA-derived thermal denaturation curves through curve integration by pooling of individual temperature points into a single “integral” sample for each treatment condition, thereby increasing throughput (FIG. 9). In contrast to MS-CETSA (which relies on curve comparisons), PISA determinations are performed by simply comparing soluble protein abundance levels between compound- and DMSO-treated samples. Importantly, protein fold-change measurements in PISA experiments generally scale with the thermal shift derived from CETSA experiments, and the magnitude of a thermal shift can inform on relative affinity between compounds and individual targets.^30,32-25 Maximal stability changes are protein-specific,^36 however, precluding estimations of preference for one target over another. Thus, PISA allows for simultaneous target profiling and comparisons of binding affinity between different compounds within a given target.
Of note, we also detected stabilization of DDX3Y, a paralog which shares >90% sequence similarity with DDX3X.
PISA assay in GBM0308 cell lysates: The PISA assay was performed in lysates as described by Gaetani and coworkers^S2 with slight modification. […] Lysate concentration was determined using a Pierce BCA Protein Assay Kit and adjusted to 2.0 mg/mL in lysis buffer. […]

Another assay deals with BT145 CSCs. The assay is described as follows: Dose-response killing of CSCs in BT145 glioblastoma cell line. The conditions noted are these: Homo sapiens, read-out: CSC EC50. In kind it is cell-based. The protocol:
Cell Culture: Glioblastoma stem cell lines GBM0308, BT145, and BT112 were cultured in neurobasal (NBE medium) containing N-2 and B-27 supplements, EGF, bFGF, L-glutamine, and Penicillin-Streptomycin), as described previously.^19 Adherent GBM cells were cultured in serum-containing DMEM media (Invitrogen) supplemented with 10% fetal bovine serum (Corning Cellgro™). Cells were incubated at 37° C. and 5% CO2 to allow neurosphere formation. For seeding and subculturing, the neurospheres were gently trypsinized with 0.025% trypsin to form a single-cell suspension.
Dose-Response Testing in GBM Cells: Briefly, on day 1, cells were seeded in triplicate. For CSCs, 1500 cells/well were plated in a low attachment 96-well plate with NBE media and incubated for 3 days at 37° C. and 5% CO2 to allow the formation of neurospheres. For non-CSCs, 3000 cells/well were plated in a 96-well plate with DMEM media supplemented with 10% FBS. Similarly, the assay plates were also incubated for the same duration. Compound treatments started on day 4. […] After incubation, plates were read by Celigo imaging cytometer using an inbuilt Celigo application; Cell Viability (Dead+Total). For the viability measurement, the total number of neurospheres/cells and dead neurospheres/cells in each well were counted by the cytometer. […]

T1 sequence (O00571 whole entry): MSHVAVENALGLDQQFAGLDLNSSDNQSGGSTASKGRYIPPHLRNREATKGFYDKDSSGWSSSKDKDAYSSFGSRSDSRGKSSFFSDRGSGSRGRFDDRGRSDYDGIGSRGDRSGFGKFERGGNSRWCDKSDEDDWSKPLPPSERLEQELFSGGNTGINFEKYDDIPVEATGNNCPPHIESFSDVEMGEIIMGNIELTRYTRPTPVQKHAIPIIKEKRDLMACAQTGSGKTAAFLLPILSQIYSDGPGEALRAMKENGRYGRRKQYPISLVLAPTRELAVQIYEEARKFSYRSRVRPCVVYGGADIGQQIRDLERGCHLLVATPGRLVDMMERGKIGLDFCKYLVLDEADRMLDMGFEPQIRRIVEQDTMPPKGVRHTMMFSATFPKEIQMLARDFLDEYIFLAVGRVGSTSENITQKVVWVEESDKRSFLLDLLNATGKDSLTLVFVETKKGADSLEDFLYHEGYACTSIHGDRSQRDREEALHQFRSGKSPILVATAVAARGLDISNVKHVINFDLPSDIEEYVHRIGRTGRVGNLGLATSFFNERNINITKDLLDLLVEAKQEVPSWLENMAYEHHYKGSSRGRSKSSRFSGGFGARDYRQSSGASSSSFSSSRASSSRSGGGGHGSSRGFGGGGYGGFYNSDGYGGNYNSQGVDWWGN

For the molecule `CONC(=O)[C@H]1[C@@H](O)[C@@]2(O)c3c(OC)cc(OC)cc3O[C@@]2(c2ccc(Br)cc2)[C@@H]1c1ccccc1` [(−)-7, SDS-1-021], the “thermal stabilization of DDX3X (PISA), in words” value on DDX3X is “stabilized”. Turning to `COc1cc(OC)c2c(c1)O[C@@]1(c3ccc(Br)cc3)[C@H](c3ccccc3)[C@@H](C(=O)NS(=O)(=O)N(C)C)[C@@H](O)[C@@]21O` [(−)-20, (1R,2R,3S,3aR,8bS)-3a-(4-bromophenyl)-N—(N,N-dimethylsulfamoyl)-1,8b-dihydroxy-6,8-dimethoxy-3-phenyl-2,3,3a,8b-tetrahydro-1H-cyclopenta[b]benzofuran-2-carboxamide], the EC50 in the assay with BT145 CSCs was 93 nM. Moreover, the “thermal stabilization of DDX3X (PISA), in words” value at DDX3X is “stabilized”.

The term EC50 denotes the concentration at which the effect is half-maximal.
